Data published in patent publication US20100003246A1, “Novel heterocyclic compounds and uses therof” (priority 2008, published 2010).

Target: T1, b-Raf(V600E) (Homo sapiens, UniProt P15056, V600E)
T1 construct: made in house
Assay: Raf/Mek Amplified Luminescence Proximity Homogeneous Assay (Alpha Screen), b-Raf(V600E)
Assay type: biochemical
Details: mutant b-Raf(V600E), read-out: mut-b-RAF (IC50 in uM)
Procedure, shortened: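 Active b-Raf(V600E) (~4 pM) pre-incubated 60 min at room temperature with compound and kinase-dead biotinylated Mek (~10 nM) in Tris pH 7.5, MgCl2, BSA, DTT; ATP-started reaction ran 3 h, EDTA-stopped. Phospho-MEK detected by anti-p-MEK AlphaScreen luminescence; IC50 by non-linear regression.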

T1 sequence (P15056 whole entry V600E): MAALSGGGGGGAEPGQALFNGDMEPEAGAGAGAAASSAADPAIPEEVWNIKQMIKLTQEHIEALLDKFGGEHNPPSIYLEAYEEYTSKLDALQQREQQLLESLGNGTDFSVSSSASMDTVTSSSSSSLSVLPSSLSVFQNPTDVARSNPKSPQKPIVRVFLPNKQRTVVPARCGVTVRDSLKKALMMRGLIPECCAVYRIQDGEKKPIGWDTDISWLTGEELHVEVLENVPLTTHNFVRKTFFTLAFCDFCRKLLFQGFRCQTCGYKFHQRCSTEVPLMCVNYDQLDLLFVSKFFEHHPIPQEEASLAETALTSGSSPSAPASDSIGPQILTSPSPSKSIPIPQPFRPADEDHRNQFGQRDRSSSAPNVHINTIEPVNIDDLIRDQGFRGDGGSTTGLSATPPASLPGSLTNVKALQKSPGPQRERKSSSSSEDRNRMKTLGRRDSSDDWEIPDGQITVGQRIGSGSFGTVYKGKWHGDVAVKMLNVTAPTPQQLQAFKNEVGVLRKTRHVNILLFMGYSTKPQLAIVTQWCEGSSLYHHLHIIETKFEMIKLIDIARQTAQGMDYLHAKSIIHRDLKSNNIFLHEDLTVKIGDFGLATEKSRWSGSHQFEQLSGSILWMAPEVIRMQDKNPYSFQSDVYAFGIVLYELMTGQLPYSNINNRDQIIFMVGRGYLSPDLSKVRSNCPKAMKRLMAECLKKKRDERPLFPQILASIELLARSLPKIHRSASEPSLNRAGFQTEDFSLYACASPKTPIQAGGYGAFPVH

Structure (SMILES)	IC50 [µM]
COc1cc(-c2[nH]c(-c3ccc(F)cc3)nc2-c2ccnc(N[C@@H]3CCN(C(C)=O)C3)n2)cnc1N [Compound 193, (R)-1-(3-(4-(5-(6-amino-5-methoxypyridin-3-yl)-2-(4-fluorophenyl)-1H-imidazol-4-yl)pyrimidin-2-ylamino)pyrrolidin-1-yl)ethanone]	0.038
COc1cc(-c2[nH]c(-c3ccc(F)cc3)nc2-c2ccnc(N[C@H]3CCN(C(C)=O)C3)n2)cnc1N [Compound 194, (S)-1-(3-(4-(5-(6-amino-5-methoxypyridin-3-yl)-2-(4-fluorophenyl)-1H-imidazol-4-yl)pyrimidin-2-ylamino)pyrrolidin-1-yl)ethanone]	0.008
COc1cc(-c2[nH]c(-c3ccc(F)cc3)nc2-c2ccnc(N[C@@H]3CCN(S(C)(=O)=O)C3)n2)cnc1N [Compound 199, (R)-4-(5-(6-amino-5-methoxypyridin-3-yl)-2-(4-fluorophenyl)-1H-imidazol-4-yl)-N-(1-(methylsulfonyl)pyrrolidin-3-yl)pyrimidin-2-amine]	0.015
COc1cc(-c2[nH]c(-c3ccc(F)cc3)nc2-c2ccnc(N[C@H]3CCN(S(C)(=O)=O)C3)n2)cnc1N [Compound 200, (S)-4-(5-(6-amino-5-methoxypyridin-3-yl)-2-(4-fluorophenyl)-1H-imidazol-4-yl)-N-(1-(methylsulfonyl)pyrrolidin-3-yl)pyrimidin-2-amine]	0.004
COc1cc(-c2nc(C(C)(C)C)[nH]c2-c2ccnc(N)n2)cnc1N [Compound 201, 4-(4-(6-amino-5-methoxypyridin-3-yl)-2-tert-butyl-1H-imidazol-5-yl)pyrimidin-2-amine]	0.0005
COCC(=O)NCCNc1nccc(-c2nc(-c3ccc(F)cc3)[nH]c2-c2cc(C)c3ncnn3c2)n1 [Compound 202, N-(2-(4-(2-(4-fluorophenyl)-5-(8-methyl-[1,2,4]triazolo[1,5-a]pyridin-6-yl)-1H-imidazol-4-yl)pyrimidin-2-ylamino)ethyl)-2-methoxyacetamide]	0.025
COc1cc(-c2nc(C(C)(C)C)[nH]c2-c2ccnc(N[C@@H]3CCN(S(C)(=O)=O)C3)n2)cnc1N [Compound 203, (R)-4-(4-(6-amino-5-methoxypyridin-3-yl)-2-tert-butyl-1H-imidazol-5-yl)-N-(1-(methylsulfonyl)pyrrolidin-3-yl)pyrimidin-2-amine]	0.0035
COCC(=O)NC[C@H](C)Nc1nccc(-c2nc(C(C)(C)C)[nH]c2-c2cnc(N)c(OC)c2)n1 [Compound 204, (S)-N-(2-(4-(5-(6-amino-5-methoxypyridin-3-yl)-2-tert-butyl-1H-imidazol-4-yl)pyrimidin-2-ylamino)propyl)-2-methoxyacetamide]	0.0008
COc1cc(-c2[nH]c(C(C)(C)C)nc2-c2ccnc(N[C@@H](C)CNC(=O)[C@H](C)OC)n2)cnc1N [Compound 207, (S)-N-((S)-2-(4-(5-(6-amino-5-methoxypyridin-3-yl)-2-tert-butyl-1H-imidazol-4-yl)pyrimidin-2-ylamino)propyl)-2-methoxypropanamide]	0.0158
COc1cc(-c2[nH]c(C(C)(C)C)nc2-c2ccnc(N[C@@H](C)CNC(=O)[C@@H](C)OC)n2)cnc1N [Compound 208, (R)-N-((S)-2-(4-(5-(6-amino-5-methoxypyridin-3-yl)-2-tert-butyl-1H-imidazol-4-yl)pyrimidin-2-ylamino)propyl)-2-methoxypropanamide]	0.0014
COCC(=O)N[C@@H](C)CNc1nccc(-c2oc(-c3ccc(F)cc3)nc2-c2cnc(N)c(OC)c2)n1 [Compound 214, (S)-N-(1-(4-(4-(6-amino-5-methoxypyridin-3-yl)-2-(4-fluorophenyl)oxazol-5-yl)pyrimidin-2-ylamino)propan-2-yl)-2-methoxyacetamide]	0.001
COc1cc(-c2nc(C(C)(C)C)[nH]c2-c2ccnc(NCc3ccc(C(F)(F)F)cc3)n2)cnc1N [Compound 215, 4-(4-(6-amino-5-methoxypyridin-3-yl)-2-tert-butyl-1H-imidazol-5-yl)-N-(4-(trifluoromethyl)benzyl)-pyrimidin-2-amine]	0.0005
COCC(=O)N[C@@H](C)CNc1nccc(-c2oc(-c3ccc(F)cc3)nc2-c2cnc(N)c(OC)n2)n1 [Compound 217, (S)-N-(1-(4-(4-(5-amino-6-methoxypyrazin-2-yl)-2-(4-fluorophenyl)oxazol-5-yl)pyrimidin-2-ylamino)propan-2-yl)-2-methoxyacetamide]	0.002

Next, values leading:

IC50 [µM]	Structure (SMILES)
0.0005	COc1cc(-c2[nH]c(-c3ccc(F)cc3)nc2-c2ccnc(Nc3ccc(N4C[C@@H](C)O[C@@H](C)C4)nc3)n2)cnc1N [Compound 187, 4-(5-(6-amino-5-methoxypyridin-3-yl)-2-(4-fluorophenyl)-1H-imidazol-4-yl)-N-(6-((2S,6R)-2,6-dimethylmorpholino)-pyridin-3-yl)pyrimidin-2-amine]
0.0003	COc1cc(-c2nc(C(C)(C)C)[nH]c2-c2ccnc(Nc3ccc4c(c3)OC(F)(F)O4)n2)cnc1N [Compound 189, 4-(4-(6-amino-5-methoxypyridin-3-yl)-2-tert-butyl-1H-imidazol-5-yl)-N-(2,2-difluorobenzo[d][1,3]dioxol-5-yl)pyrimidin-2-amine]
0.0003	COc1cc(-c2nc(C(C)(C)C)[nH]c2-c2ccnc(Nc3cccc(OC(F)(F)F)c3)n2)cnc1N [Compound 190, 4-(4-(6-amino-5-methoxypyridin-3-yl)-2-tert-butyl-1H-imidazol-5-yl)-N-(3-(trifluoromethoxy)phenyl) pyrimidin-2-amine]
0.0004	COc1cc(-c2nc(C(C)(C)C)[nH]c2-c2ccnc(Nc3cccc(C(F)(F)F)c3)n2)cnc1N [Compound 191, 4-(4-(6-amino-5-methoxypyridin-3-yl)-2-tert-butyl-1H-imidazol-5-yl)-N-(3-(trifluoromethyl)phenyl) pyrimidin-2-amine]
0.0002	COc1ccc(CNc2nccc(-c3[nH]c(C(C)(C)C)nc3-c3cnc(N)c(OC)c3)n2)cc1 [Compound 192, 4-(4-(6-amino-5-methoxypyridin-3-yl)-2-tert-butyl-1H-imidazol-5-yl)-N-(4-methoxybenzyl)pyrimidin-2-amine]
0.0001	COc1cc(-c2nc(-c3ccc(F)cc3)[nH]c2-c2ccnc(NC[C@H](C)NS(C)(=O)=O)n2)cnc1N [Compound 195, (S)-N-(1-(4-(4-(6-amino-5-methoxypyridin-3-yl)-2-(4-fluorophenyl)-1H-imidazol-5-yl)pyrimidin-2-ylamino)propan-2-yl)methanesulfonamide]
0.0002	COc1cc(-c2nc(-c3ccc(F)cc3)[nH]c2-c2ccnc(NC[C@H](C)NC(=O)[C@@H](C)OC)n2)cnc1N [Compound 196, (R)-N-((S)-1-(4-(4-(6-amino-5-methoxypyridin-3-yl)-2-(4-fluorophenyl)-1H-imidazol-5-yl)pyrimidin-2-ylamino)propan-2-yl)-2-methoxypropanamide]
0.0001	COc1cc(-c2nc(-c3ccc(F)cc3)[nH]c2-c2ccnc(NC[C@H](C)NC(=O)[C@H](C)OC)n2)cnc1N [Compound 197, (S)-N-((S)-1-(4-(4-(6-amino-5-methoxypyridin-3-yl)-2-(4-fluorophenyl)-1H-imidazol-5-yl)pyrimidin-2-ylamino)propan-2-yl)-2-methoxypropanamide]
0.0004	COCC(=O)N[C@@H](C)CNc1nccc(-c2[nH]c(C(C)(C)C)nc2-c2cnc(N)c(OC)c2)n1 [Compound 205, (S)-N-(1-(4-(4-(6-amino-5-methoxypyridin-3-yl)-2-tert-butyl-1H-imidazol-5-yl)pyrimidin-2-ylamino)propan-2-yl)-2-methoxyacetamide]
0.0003	COc1cc(-c2nc(C(C)(C)C)[nH]c2-c2ccnc(NC[C@H](C)NC(=O)C(F)(F)F)n2)cnc1N [Compound 206, (S)-N-(1-(4-(4-(6-amino-5-methoxypyridin-3-yl)-2-tert-butyl-1H-imidazol-5-yl)pyrimidin-2-ylamino)propan-2-yl)-2,2,2-trifluoroacetamide]
0.0001	COc1cc(-c2nc(C(C)(C)C)[nH]c2-c2ccnc(NCC(C)C)n2)cnc1N [Compound 209, 4-(4-(6-amino-5-methoxypyridin-3-yl)-2-tert-butyl-1H-imidazol-5-yl)-N-isobutylpyrimidin-2-amine]
0.0001	CNc1nccc(-c2[nH]c(C(C)(C)C)nc2-c2cnc(N)c(OC)c2)n1 [Compound 210, 4-(4-(6-amino-5-methoxypyridin-3-yl)-2-tert-butyl-1H-imidazol-5-yl)-N-methylpyrimidin-2-amine]
0.0001	CCNc1nccc(-c2[nH]c(C(C)(C)C)nc2-c2cnc(N)c(OC)c2)n1 [Compound 211, 4-(4-(6-amino-5-methoxypyridin-3-yl)-2-tert-butyl-1H-imidazol-5-yl)-N-ethylpyrimidin-2-amine]
0.0001	CCCNc1nccc(-c2[nH]c(C(C)(C)C)nc2-c2cnc(N)c(OC)c2)n1 [Compound 212, 4-(4-(6-amino-5-methoxypyridin-3-yl)-2-tert-butyl-1H-imidazol-5-yl)-N-propylpyrimidin-2-amine]
0.0001	COc1cc(-c2nc(C(C)(C)C)[nH]c2-c2ccnc(NCC(F)(F)F)n2)cnc1N [Compound 213, 4-(4-(6-amino-5-methoxypyridin-3-yl)-2-tert-butyl-1H-imidazol-5-yl)-N-(2,2,2-trifluoroethyl)pyrimidin-2-amine]
0.0002	COCC(=O)N[C@@H](C)CNc1nccc(-c2[nH]c(-c3ccc(C(F)(F)F)cc3F)nc2-c2cnc(N)c(OC)c2)n1 [Compound 216, (S)-N-(1-(4-(6-(6-amino-5-methoxypyridin-3-yl)-2-(2-fluoro-4-(trifluoromethyl)phenyl)-1H-imidazol-5-yl)pyrimidin-2-ylamino)propan-2-yl)-2-methoxyacetamide]
0.0003	COc1cc(-c2nc(C(C)(C)C)[nH]c2-c2ccnc(NC[C@H](C)NC(C)=O)n2)cnc1N [Compound 218, (S)-N-(1-(4-(4-(6-amino-5-methoxypyridin-3-yl)-2-tert-butyl-1H-imidazol-5-yl)pyrimidin-2-ylamino)propan-2-yl)acetamide]
